Experimental data taken from patent publication US10457687B2, “Aminoacid derivatives, a process for their preparation and pharmaceutical compositions containing them” (LES LABORATOIRES SERVIER, priority 2015, dated 2019).

Molecular target: Mcl-1 protein (Homo sapiens, UniProt Q07820)
Test: Inhibition of Mcl-1 by the fluorescence polarisation technique (Method 1 or Method 2)
Type: binding
Conditions: for percentage fluorescence polarisation inhibition, Mcl-1 FP: partial inhibitors; for IC50: fluorescence polarisation, Fluorescein labelled ligand, Method 1 (not underlined) or Method 2 (underlined), read-out: IC50 (μM) Mcl-1 FP
Outline: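 Binding measured by FP, with Mcl-1 protein and fluorescein-labelled ligand mixed with compounds in an 11-point series at 5% final DMSO. Method 2 used 10 nM each of protein and ligand in phosphate buffer (20 mM Na2HPO4, 1 mM EDTA, 50 mM NaCl, pH 7.4); Method 1 used 5 nM protein, 1 nM ligand in HEPES buffer (10 mM HEPES, 150 mM NaCl, 0.05% Tween 20, pH 7.4).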

Chain of Mcl-1 protein (Q07820 whole entry): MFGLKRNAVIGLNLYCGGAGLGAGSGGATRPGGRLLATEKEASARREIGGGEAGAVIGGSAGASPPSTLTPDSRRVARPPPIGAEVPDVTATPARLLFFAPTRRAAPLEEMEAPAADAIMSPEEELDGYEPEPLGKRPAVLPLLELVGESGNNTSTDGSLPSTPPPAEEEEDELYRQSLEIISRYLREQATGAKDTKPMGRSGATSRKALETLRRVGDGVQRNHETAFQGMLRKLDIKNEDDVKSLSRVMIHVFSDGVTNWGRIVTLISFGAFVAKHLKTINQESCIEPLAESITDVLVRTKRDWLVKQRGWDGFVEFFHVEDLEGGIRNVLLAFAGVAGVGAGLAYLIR

Row | SMILES | IC50 [µM] | other results
1 | CCc1sc2ncnc(N[C@H](Cc3ccccc3Br)C(=O)O)c2c1-c1cccc(Cl)c1C [Example 139, 2-bromo-N-[(5Ra)-5-(3-chloro-2-methylphenyl)-6-ethylthieno[2,3-d]pyrimidin-4-yl]-D-phenylalanine] |  | percentage fluorescence polarisation inhibition, Mcl-1 FP (@ 10 μM test compound): 32.75% @ 10 μM
2 | CCc1sc2ncnc(NC(Cc3ccccc3Br)C(=O)O)c2c1-c1cccc(Cl)c1C [Example 140, 2-bromo-N-[(5Sa)-5-(3-chloro-2-methylphenyl)-6-ethylthieno[2,3-d]pyrimidin-4-yl]-D-phenylalanine] | 0.208 | 
3 | CCc1sc2ncnc(NC(Cc3ccccc3OCC(=O)N(C)C)C(=O)O)c2c1-c1cccc(Cl)c1C [Example 141, N-[(5Ra)-5-(3-chloro-2-methylphenyl)-6-ethylthieno[2,3-d]pyrimidin-4-yl]-2-[2-(dimethylamino)-2-oxoethoxy]-D-phenylalanine] |  | percentage fluorescence polarisation inhibition, Mcl-1 FP (@ 10 μM test compound): 26.78% @ 10 μM
4 | CCc1sc2ncnc(NC(Cc3ccccc3OCC(=O)N(C)C)C(=O)O)c2c1-c1cccc(Cl)c1C [Example 142, N-[(5Sa)-5-(3-chloro-2-methylphenyl)-6-ethylthieno[2,3-d]pyrimidin-4-yl]-2-[2-(dimethylamino)-2-oxoethoxy]-D-phenylalanine] | 0.335 | 
5 | CCc1sc2ncnc(NC(Cc3ccccc3OCCC3CCCC3)C(=O)O)c2c1-c1cccc(Cl)c1C [Example 143, N-[(5Ra)-5-(3-chloro-2-methylphenyl)-6-ethylthieno[2,3-d]pyrimidin-4-yl]-2-(2-cyclopentylethoxy)-D-phenylalanine] |  | percentage fluorescence polarisation inhibition, Mcl-1 FP (@ 50 μM test compound): 68.85% @ 50 μM
6 | CCc1sc2ncnc(NC(Cc3ccccc3OCCC3CCCC3)C(=O)O)c2c1-c1cccc(Cl)c1C [Example 144, N-[(5Sa)-5-(3-chloro-2-methylphenyl)-6-ethylthieno[2,3-d]pyrimidin-4-yl]-2-(2-cyclopentylethoxy)-D-phenylalanine] | 0.154 | 
7 | CCc1sc2ncnc(NC(Cc3ccccc3OCc3cccc(Cl)c3)C(=O)O)c2c1-c1cccc(Cl)c1C [Example 149, 2-[(3-chlorobenzyl)oxy]-N-[(5Ra)-5-(3-chloro-2-methylphenyl)-6-ethylthieno[2,3-d]pyrimidin-4-yl]-D-phenylalanine] | 14 | 
8 | CCc1sc2ncnc(NC(Cc3ccccc3OCc3cccc(Cl)c3)C(=O)O)c2c1-c1cccc(Cl)c1C [Example 150, 2-[(3-chlorobenzyl)oxy]-N-[(5Sa)-5-(3-chloro-2-methylphenyl)-6-ethylthieno[2,3-d]pyrimidin-4-yl]-D-phenylalanine] | 0.528 | 
9 | CCc1sc2ncnc(NC(Cc3ccccn3)C(=O)O)c2c1-c1cccc(Cl)c1C [Example 151, N-[(5Ra)-5-(3-chloro-2-methylphenyl)-6-ethylthieno[2,3-d]pyrimidin-4-yl]-3-pyridin-2-yl-D-alanine] |  | percentage fluorescence polarisation inhibition, Mcl-1 FP (@ 66.7 μM test compound): 71.3% @ 66.7 μM
10 | CCc1sc2ncnc(NC(Cc3ccccn3)C(=O)O)c2c1-c1cccc(Cl)c1C [Example 152, N-[(5Sa)-5-(3-chloro-2-methylphenyl)-6-ethylthieno[2,3-d]pyrimidin-4-yl]-3-pyridin-2-yl-D-alanine] | 0.047 | 
11 | CCc1sc2ncnc(N[C@H](Cc3ccccc3OCCN3CCN(C)CC3)C(=O)O)c2c1-c1cccc(Cl)c1C [Example 153, N-[(5Ra)-5-(3-chloro-2-methylphenyl)-6-ethylthieno[2,3-d]pyrimidin-4-yl]-2-[2-(4-methylpiperazin-1-yl)ethoxy]-D-phenylalanine] |  | percentage fluorescence polarisation inhibition, Mcl-1 FP (@ 50 μM test compound): 75.7% @ 50 μM
12 | CCc1sc2ncnc(NC(Cc3ccccc3OCCN3CCN(C)CC3)C(=O)O)c2c1-c1cccc(Cl)c1C [Example 154, N-[(5Sa)-5-(3-chloro-2-methylphenyl)-6-ethylthieno[2,3-d]pyrimidin-4-yl]-2-[2-(4-methylpiperazin-1-yl)ethoxy]-D-phenylalanine] | 2.32 | 
13 | CCc1sc2ncnc(N[C@H](Cc3ccccc3OCCN(C)C)C(=O)O)c2c1-c1cccc(Cl)c1C [Example 155, N-[(5Ra)-5-(3-chloro-2-methylphenyl)-6-ethylthieno[2,3-d]pyrimidin-4-yl]-2-[2-(dimethylamino)ethoxy]-D-phenylalanine] |  | percentage fluorescence polarisation inhibition, Mcl-1 FP (@ 50 μM test compound): 63.15% @ 50 μM
14 | CCc1sc2ncnc(NC(Cc3ccccc3OCCN(C)C)C(=O)O)c2c1-c1cccc(Cl)c1C [Example 156, N-[(5Sa)-5-(3-chloro-2-methylphenyl)-6-ethylthieno[2,3-d]pyrimidin-4-yl]-2-[2-(dimethylamino)ethoxy]-D-phenylalanine] | 0.309 | 
15 | CCc1sc2ncnc(N[C@H](Cc3ccccc3OCCCN(C)C)C(=O)O)c2c1-c1cccc(Cl)c1C [Example 157, N-[(5Ra)-5-(3-chloro-2-methylphenyl)-6-ethylthieno[2,3-d]pyrimidin-4-yl]-2-[3-(dimethylamino)propoxy]-D-phenylalanine] |  | percentage fluorescence polarisation inhibition, Mcl-1 FP (@ 50 μM test compound): 62.05% @ 50 μM
16 | CCc1sc2ncnc(NC(Cc3ccccc3OCCCN(C)C)C(=O)O)c2c1-c1cccc(Cl)c1C [Example 158, N-[(5Sa)-5-(3-chloro-2-methylphenyl)-6-ethylthieno[2,3-d]pyrimidin-4-yl]-2-[3-(dimethylamino)propoxy]-D-phenylalanine] | 0.104 | 
17 | CCc1sc2ncnc(N[C@H](CC3CC3)C(=O)O)c2c1-c1cccc2ccccc12 [Example 159, 3-cyclopropyl-N-[6-ethyl-5-(naphthalen-1-yl)thieno[2,3-d]pyrimidin-4-yl]-D-alanine] | 1.77 | 

Row | SMILES | IC50 [µM] | other results
18 | CCc1sc2ncnc(NC(Cc3cccnc3)C(=O)O)c2c1-c1cccc2ccccc12 [Example 162, N-[6-ethyl-(5Sa)-5-(naphthalen-1-yl)thieno[2,3-d]pyrimidin-4-yl]-3-pyridin-3-yl-D-alanine] | 0.597 | 
19 | CCc1sc2ncnc(NC(Cc3cccnc3)C(=O)O)c2c1-c1cccc2ccccc12 [Example 163, N-[6-ethyl-(5Ra)-5-(naphthalen-1-yl)thieno[2,3-d]pyrimidin-4-yl]-3-pyridin-3-yl-D-alanine] | 8.37 | 
20 | CCc1sc2ncnc(N[C@H](CC3CCCCC3)C(=O)O)c2c1-c1cccc2ccccc12 [Example 164, 3-cyclohexyl-N-[6-ethyl-5-(naphthalen-1-yl)thieno[2,3-d]pyrimidin-4-yl]-D-alanine] | 0.227 | 
21 | CCc1sc2ncnc(NC(CC3CCCCC3)C(=O)O)c2c1-c1cccc2ccccc12 [Example 165, 3-cyclohexyl-N-[6-ethyl-(5Ra)-5-(naphthalen-1-yl)thieno[2,3-d]pyrimidin-4-yl]-D-alanine] | 0.315 | 
22 | CCc1sc2ncnc(NC(CC3CCCCC3)C(=O)O)c2c1-c1cccc2ccccc12 [Example 166, 3-cyclohexyl-N-[6-ethyl-(5Sa)-5-(naphthalen-1-yl)thieno[2,3-d]pyrimidin-4-yl]-D-alanine] | 0.064 | 
23 | CCc1sc2ncnc(N[C@H](CCc3ccccc3)C(=O)O)c2c1-c1cccc2ccccc12 [Example 169, (2R)-2-{[6-ethyl-5-(naphthalen-1-yl)thieno[2,3-d]pyrimidin-4-yl]amino}-4-phenylbutanoic acid] | 2.1 | 
24 | CCc1sc2ncnc(NC(CCc3ccccc3)C(=O)O)c2c1-c1cccc2ccccc12 [Example 170, (2R)-2-{[6-ethyl-(5Sa)-5-(naphthalen-1-yl)thieno[2,3-d]pyrimidin-4-yl]amino}-4-phenylbutanoic acid] | 0.955 | 
25 | CCc1sc2ncnc(NC(CCc3ccccc3)C(=O)O)c2c1-c1cccc2ccccc12 [Example 171, (2R)-2-{[6-ethyl-(5Ra)-5-(naphthalen-1-yl)thieno[2,3-d]pyrimidin-4-yl]amino}-4-phenylbutanoic acid] | 2.77 | 
26 | CCc1sc2ncnc(NC(Cc3ccc(O)cc3)C(=O)O)c2c1-c1cccc2ccccc12 [Example 172, N-[6-ethyl-(5Ra)-5-(naphthalen-1-yl)thieno[2,3-d]pyrimidin-4-yl]-D-tyrosine] | 28.8 | 
27 | CCc1sc2ncnc(NC(Cc3ccc(O)cc3)C(=O)O)c2c1-c1cccc2ccccc12 [Example 173, N-[6-ethyl-(5Sa)-5-(naphthalen-1-yl)thieno[2,3-d]pyrimidin-4-yl]-D-tyrosine] | 6.79 | 
28 | CCc1sc2ncnc(NC(Cc3ccccc3O)C(=O)O)c2c1-c1cccc2ccccc12 [Example 174, N-[6-ethyl-(5Sa)-5-(naphthalen-1-yl)thieno[2,3-d]pyrimidin-4-yl]-2-hydroxy-D-phenylalanine] | 0.466 | 
29 | CCc1sc2ncnc(NC(Cc3ccccc3O)C(=O)O)c2c1-c1cccc2ccccc12 [Example 175, N-[6-ethyl-(5Ra)-5-(naphthalen-1-yl)thieno[2,3-d]pyrimidin-4-yl]-2-hydroxy-D-phenylalanine] | 3.86 | 
30 | CCc1sc2ncnc(NC(Cc3ccc(F)cc3)C(=O)O)c2c1-c1cccc2ccccc12 [Example 176, N-[6-ethyl-(5Ra)-5-(naphthalen-1-yl)thieno[2,3-d]pyrimidin-4-yl]-4-fluoro-D-phenylalanine] | 8.41 | 
31 | CCc1sc2ncnc(NC(Cc3ccc(F)cc3)C(=O)O)c2c1-c1cccc2ccccc12 [Example 177, N-[6-ethyl-(5Sa)-5-(naphthalen-1-yl)thieno[2,3-d]pyrimidin-4-yl]-4-fluoro-D-phenylalanine] | 0.957 | 
32 | CCc1sc2ncnc(NC(Cc3cccc(F)c3)C(=O)O)c2c1-c1cccc2ccccc12 [Example 178, N-[6-ethyl-(5Ra)-5-(naphthalen-1-yl)thieno[2,3-d]pyrimidin-4-yl]-3-fluoro-D-phenylalanine] | 3.23 | 
33 | CCc1sc2ncnc(NC(Cc3cccc(F)c3)C(=O)O)c2c1-c1cccc2ccccc12 [Example 179, N-[6-ethyl-(5Sa)-5-(naphthalen-1-yl)thieno[2,3-d]pyrimidin-4-yl]-3-fluoro-D-phenylalanine] | 0.881 | 
34 | CCc1sc2ncnc(NC(Cc3ccccc3F)C(=O)O)c2c1-c1cccc2ccccc12 [Example 180, N-[6-ethyl-(5Ra)-5-(naphthalen-1-yl)thieno[2,3-d]pyrimidin-4-yl]-2-fluoro-D-phenylalanine] | 2.1 | 
